In US6951639B2, “1,4,7,10-tetraazacyclododecane butyltriols, processes for their production and pharmaceutical agents containing them” (Schering AG, priority 1990, dated 2005):

Columns and labels:
[1] = tested on: rats; test: Intracisternal administration (ED50), neural compatibility; format: in vivo, rats (Wistar-Han-Schering, SPF); settings: once intracisternally, 0.08 ml/animal, posture anomalies, spasms and death as criteria
Protocol: 2. Intracisternal Administration (ED50)
The test substance was administered under light ether anesthesia to an equal number of female and male rats (130-170 g, Wistar-Han-Schering, SPF) once intracisternally by suboccipital puncture in constant volumes (0.08 ml/animal) in different concentrations (3 doses per 10 animals per substance). A volume sampling check (Ringer's solution) followed the study. Posture anomalies, spasms and death of the animals were evaluated as action criteria.
(§1) The statistical evaluation of all study results took place with the probit analysis.

[2] = tested on: mice; test: Acute toxicity determination (LD50), intravenous administration in a caudal vein; format: in vivo; settings: mice 18-22 g, 2 ml/min, 7 days observation, death as criterion
Protocol: 1. Acute Toxicity Determination (LD50)
In an individual cage (Rhema/Hofheim company) the contrast medium was administered to mice (weight: 18-22 g) approximately at body temperature in a caudal vein at a rate of 2 ml/min. […]
The contrast media were administered to 3 mice each in 3 doses at variable volumes and constant concentration. The allocation of the animals to the individual doses and the injection sequence of the doses took place by chance.
The observation period of the animals extended over 7 days per injection. The death of the animals was used as the criterion of the effectiveness.
as §1

[3] = tested on: cerebral infarction in the rat; test: NMR-diagnostic in vivo examination: demonstration of a cerebral infarction in the rat; parameters: species or system Wistar rat; settings: image 1 minute after administration
Protocol: The experimental animal was a female Wistar rat weighing 200 g. For the induction of the cerebral infarction, the animal was first anesthetized. After intravenous injection of Bengal red with a dose of 20 mg/kg, an area of the brain about 0.7 cm in diameter near the bregma point was irradiated through the cranium with light of wavelength 548 nm (this corresponds to the maximum absorption of Bengal red), by which, because of the formation of singlet oxygen by a chain of various reactions, there results the aggregation of platelets and thus an infarction in the irradiated region.
The imaging took place in an MRI experimental device of the General Electric company (field strength, 2 teslas). It was performed with a spin echo sequence (TR=400 msec, Ts=20 msec). The layer thickness was 3 mm, and 4 averagings were performed respectively.
An axial sectional plane image without contrast medium where the cranium points downward was taken. The infraction area is indicated only quite weakly by a lower signal intensity in comparison to the healthy tissue. […] The same animal was administered another dose after about 20 minutes, this time in the amount of 0.3 mmol of Gd/kg.

[4] = reference value for monomer contrast media; cited from earlier work

| Compound | Neural ED50 [1] [µmol/kg] | Acute i.v. LD50 [2] [mmol/kg] | signal enhancement in the area of infarction (MRI) ([3]; 0.1 mmol of Gd/kg, 2 teslas, spin echo) | signal enhancement in the area of infarction (MRI) ([3]; further dose of 0.3 mmol of Gd/kg after about 20 minutes) | intravenous compatibility [4] [mmol/kg] |
| --- | --- | --- | --- | --- | --- |
| O=C([O-])CN1CCN(CC(=O)[O-])CCN(CC(O)C(O)CO)CCN(CC(=O)[O-])CC1.[Gd+3] (stereo not shown) [Example 1, Gadolinium Complex of 10-(2,3,4-trihydroxybutyl)-1,4,7-triscarboxymethyl-1,4,7,10-tetraazacyclododecane] | 27 | 35 |  |  |  |
| O=C([O-])CN1CCN(CC(=O)[O-])CCN(C(CO)C(O)CO)CCN(CC(=O)[O-])CC1.[Gd+3] (stereo not shown) [Example 2, Gadolinium Complex of 10-(1-hydroxymethyl-2,3-dihydroxypropyl)-1,4,7-triscarboxymethyl-1,4,7,10-tetraazacyclododecane] | 29 | 30 | clear enhancement | enhancement substantially stronger than after the smaller dose |  |
| OC[C@@H](O)[C@@H](O)[C@H](O)[C@H](O)CO [mannitol] |  |  |  |  | 30 to 40 |
